In publication PMC8878324, “Evaluation of New Antimicrobial Agents Based on tris(1H-Indol-3-yl)methylium Salts: Activity, Toxicity, Suppression of Experimental Sepsis in Mice” (Pharmaceuticals, 2022):

Columns and labels:
S. aureus 10 = assay: Model of staphylococcal sepsis in mice; assay type: in vivo; conditions: for Death (%) / Survival Rate (%): 14 days; for Dead animals/survivors: 3 mg/kg; for ED50: Staphylococcus aureus, 10, iv, 1 h
Protocol: To determine the ability of drugs to suppress staphylococcal sepsis, a clinical isolate of S. aureus 10, lacking drug resistance and adapted for use in animals, was used. Animals, divided into several experimental groups, were intravenously infected with a lethal dose of S. aureus (0.1 mL each) (Groups 1–5). […] Along with the testing of compounds of the trisndolylmethylium class, a similar experiment was carried out with levofloxacin, taken as a reference drug for a separate group of animals (Group 4). The control group of animals received an intravenous injection of 5% glucose solution instead of the tested preparations (Group 5). Another control group, which also received a single injection of 5% glucose solution, consisted of animals that were not exposed to infection (Group 6). To study each drug, 110–150 animals were required, which were divided into small subgroups of 10 mice each to test various doses of the compounds studied. The number of dead animals and the time of their death were recorded daily, and the appearance of the animals and their weight were assessed. The duration of the experiment was 14 days.
The study was conducted on adult female SHK mice (18–20 g) obtained from the animal breeding unit of the FMBA (Scientific Center for Biomedical Technologies of the Federal Biomedical Agency, Moscow, Russia). The animals were randomly divided into groups (n = 6 for the study of acute toxicity, n = 10 (or 8) to study the efficacy of suppressing staphylococcal sepsis). The study of the effectiveness of drugs in the treatment of staphylococcal sepsis required the use of 110–175 mice for each drug, 10 animals per group. The animal study was approved by the Ethics of Animal Experimentation of Gause Institute of New Antibiotics (protocol No 13/2019).
The experiment used a strain of S. aureus 10, having no drug resistance and adapted for use in animals. Initially, the 100% lethal dose (LD100) was determined for this pathogen strain in SHK mice, i.e., the dose of the pathogen at which the death of 100% of the animals was recorded. LD100 dose of staphylococcus detected in the experiment was 8.0 × 10^8 CFU/mouse, which was then used for infecting animals.
The chemotherapeutic efficacy of tris(indolyl)methane derivatives was determined in a model of staphylococcal sepsis in mice. Mice of the SHK colony, weighing 18–20 g, were infected intravenously (into the tail vein) with a lethal dose of staphylococcus (0.1 mL of solution). One hour after infection, mice were injected intravenously (0.2 mL of solution each) with the tested tris(indolyl)methane derivatives in the range of doses from 0.1 to 40 mg/kg. For tested drugs, we used solutions prepared in 5% glucose solution. The study of the effectiveness of each drug was conducted on 115–155 mice (10 mice per group). The duration of the experiment was 14 days. The number of dead animals and the time of their death were recorded daily, and the body weight of the animals was recorded three times a week. Their feed intake was monitored, and clinical signs of animal health were assessed daily.
To determine the effectiveness of the tested drugs, 50% effective doses (ED50) were used, which was determined by the Behrens method (frequency accumulation method), as well as by the Litchfield and Wilcoxon method using the StatPlus 2006 software. For all data, the mean and standard deviation were calculated. The differences were defined as significant at p ≤ 0.05.

[1] = Cytotoxic activity, MTT assay; assay type: cell-based, human; conditions: human, HPF-hTERT
Protocol: (§1) The cytotoxic activity of the compounds was evaluated on the healthy donor (postnatal) human fibroblasts immortalized by transfection of the hTERT gene of the catalytic component of telomerase (hereinafter HPF-hTERT) that were obtained from N.N. Blokhin Russian Cancer Research Center. HFC-hTERT cells were cultured in Dulbecco’s modified medium (DMEM) containing 2 mM of L-glutamine, 10% fetal calf serum, 100 U/mL of penicillin and 100 μg/mL of streptomycin. Incubation was performed in a humidified atmosphere of 5% CO2 at 37 °C. In the experiment, we used cells in the logarithmic growth phase. To study the cytotoxicity of compounds, 190 μL of cell suspension (~2 thousand cells per well) was added to the wells of 96-well plates and incubated for 16 h. On the day of the experiment, serial dilutions of the test compounds were prepared in DMSO (stock solution—10 mM in 100% DMSO). Further dilutions were conducted in a nutrient medium. The final concentrations of compounds in the experiment were in a concentration range from 0.0025 to 50 μM. The final concentration of DMSO was 1% or less. Each concentration was presented in 3 repetitions. […] The cells were incubated with the test compounds for 72 h. After the end of incubation, 20 μL of MTT solution in growth medium (5 mg/mL) was added to the wells. The cells were incubated for 2 h until a purple color developed, after which the culture medium was removed. DMSO was added to the wells, and the sediment was suspended. Optical density was measured with a Thermo Scientific Multiscan FC spectrophotometer at 570 nm. The values of optical density in wells without addition of test compounds (control) were taken as 100% cell survival. The percentage of survival of cells incubated with the test compounds was calculated by dividing the optical density in the corresponding well (average of 3 independent measurements) by the optical density in the control. The concentration of drugs causing 50% cell death (IC50) was evaluated and expressed in μg/mL.

HPF-hTERT = assay: Cytotoxic activity, MTT assay; assay type: cell-based, human; conditions: 72 h
Protocol: as §1

[2] = 3 mg/kg i.v., Double administration
[3] = single i.v. 3.0 mg/kg 1 h after infection
[4] = single i.v. 5.0 mg/kg 1 h after infection
[5] = single i.v. 7.0 mg/kg 1 h after infection
[6] = single i.v. 9.0 mg/kg 1 h after infection
[7] = single i.v. 11.0 mg/kg 1 h after infection
[8] = single i.v. 13.0 mg/kg 1 h after infection
[9] = single i.v. 10.0 mg/kg 1 h after infection
[10] = single i.v. 15.0 mg/kg 1 h after infection
[11] = single i.v. 20.0 mg/kg 1 h after infection
[12] = single i.v. 25.0 mg/kg 1 h after infection
[13] = single i.v. 30.0 mg/kg 1 h after infection
[14] = single i.v. 35.0 mg/kg 1 h after infection
[15] = single i.v. 1.0 mg/kg 1 h after infection
[16] = single i.v. 2.0 mg/kg 1 h after infection
[17] = single i.v. 4.0 mg/kg 1 h after infection
[18] = single i.v. 6.0 mg/kg 1 h after infection

OCCCCCn1cc([C+](c2cn(CCCCCO)c3ccccc23)c2cn(CCCCCO)c3ccccc23)c2ccccc21.[Cl-] [Compound 1, tris(1-(5-Hydroxypentyl)-1H-indol-3-yl) methylium chloride]
Death (%) (S. aureus 10; [2]): 75%
Survival Rate (%) (S. aureus 10; [2]): 25%
Dead animals/survivors (S. aureus 10; Double, day 0): 0/8
Dead animals/survivors (S. aureus 10; Double, day 3): 0/8
Dead animals/survivors (S. aureus 10; Double, day 4): 1/7
Dead animals/survivors (S. aureus 10; Double, day 6): 3/5
Dead animals/survivors (S. aureus 10; Double, day 7): 4/4
Dead animals/survivors (S. aureus 10; Double, day 8): 4/4
Dead animals/survivors (S. aureus 10; Double, day 9): 5/3
Dead animals/survivors (S. aureus 10; Double, day 10): 6/2
Dead animals/survivors (S. aureus 10; Double, day 12): 6/2
Dead animals/survivors (S. aureus 10; Double, day 14): 6/2
Dead animals/survivors (S. aureus 10; One-time, day 0): 0/8
Dead animals/survivors (S. aureus 10; One-time, day 3): 1/7
Dead animals/survivors (S. aureus 10; One-time, day 4): 2/6
Dead animals/survivors (S. aureus 10; One-time, day 6): 4/4
Dead animals/survivors (S. aureus 10; One-time, day 7): 5/3
Dead animals/survivors (S. aureus 10; One-time, day 8): 5/3
Dead animals/survivors (S. aureus 10; One-time, day 9): 6/2
Dead animals/survivors (S. aureus 10; One-time, day 10): 7/1
Dead animals/survivors (S. aureus 10; One-time, day 12): 7/1
Dead animals/survivors (S. aureus 10; One-time, day 14): 7/1
Dead animals/survivors (S. aureus 10; Three-fold, day 0): 0/8
Dead animals/survivors (S. aureus 10; Three-fold, day 3): 0/8
Dead animals/survivors (S. aureus 10; Three-fold, day 4): 1/7
Dead animals/survivors (S. aureus 10; Three-fold, day 6): 2/6
Dead animals/survivors (S. aureus 10; Three-fold, day 7): 3/5
Dead animals/survivors (S. aureus 10; Three-fold, day 8): 3/5
Dead animals/survivors (S. aureus 10; Three-fold, day 9): 4/4
Dead animals/survivors (S. aureus 10; Three-fold, day 10): 5/3
Dead animals/survivors (S. aureus 10; Three-fold, day 12): 5/3
Dead animals/survivors (S. aureus 10; Three-fold, day 14): 5/3
ED50 (S. aureus 10): 7.6 mg/kg
survival rate (S. aureus 10; dose of 9–11 mg/kg, single i.v.): ~40%
Death (%) (S. aureus 10; [3]): 87.5%
Survival Rate (%) (S. aureus 10; [3]): 12.5%
Death (%) (S. aureus 10; [4]): 75%
Survival Rate (%) (S. aureus 10; [4]): 25%
Death (%) (S. aureus 10; [5]): 75%
Survival Rate (%) (S. aureus 10; [5]): 25%
Death (%) (S. aureus 10; [6]): 62.5%
Survival Rate (%) (S. aureus 10; [6]): 37.5%
Death (%) (S. aureus 10; [7]): 62.5%
Survival Rate (%) (S. aureus 10; [7]): 37.5%
Death (%) (S. aureus 10; [8]): 75%
Survival Rate (%) (S. aureus 10; [8]): 25%
IC50 at 72 h [1]: 12.6 µg/mL
Cytotoxic Activity IC50 (HPF-hTERT): 13 µg/mL

CCCn1cc([C+](c2cn(CCC)c3ccccc23)c2cn(C3=C(N)C(=O)NC3=O)c3ccccc23)c2ccccc21.[Cl-] [Compound 2, (1-(4-Amino-2,5-dioxo-2,5-dihydro-1H-pyrrol-3-yl)-1H-indol-3-yl)bis(1-propyl-1H-indol-3-yl) methylium chloride]
ED50 (S. aureus 10): 18.3 mg/kg
Death (%) (S. aureus 10; [4]): 80%
Survival Rate (%) (S. aureus 10; [4]): 20%
Death (%) (S. aureus 10; [9]): 70%
Survival Rate (%) (S. aureus 10; [9]): 30%
Death (%) (S. aureus 10; [10]): 60%
Survival Rate (%) (S. aureus 10; [10]): 40%
Death (%) (S. aureus 10; [11]): 40%
Survival Rate (%) (S. aureus 10; [11]): 60%
Death (%) (S. aureus 10; [12]): 40%
Survival Rate (%) (S. aureus 10; [12]): 60%
Death (%) (S. aureus 10; [13]): 20%
Survival Rate (%) (S. aureus 10; [13]): 80%
Death (%) (S. aureus 10; [14]): 30%
Survival Rate (%) (S. aureus 10; [14]): 70%
IC50 at 72 h [1]: 2.77 µg/mL
Cytotoxic Activity IC50 (HPF-hTERT): 2.8 µg/mL

C[C@H]1COc2c(N3CCN(C)CC3)c(F)cc3c(=O)c(C(=O)O)cn1c23 [Levofloxacin, levofloxacin, reference compound]
ED50 (S. aureus 10): 3.5 mg/kg
Death (%) (S. aureus 10; [15]): 90%
Survival Rate (%) (S. aureus 10; [15]): 10%
Death (%) (S. aureus 10; [16]): 60%
Survival Rate (%) (S. aureus 10; [16]): 40%
Death (%) (S. aureus 10; [17]): 40%
Survival Rate (%) (S. aureus 10; [17]): 60%
Death (%) (S. aureus 10; [18]): 30%
Survival Rate (%) (S. aureus 10; [18]): 70%
dose that saved the lives of 50% of infected animals (S. aureus 10; single injection): about 4 mg/kg
IC50 at 72 h [1]: > 50 µg/mL
